Consider 1 molecule from patent publication US20040067565A1, “Selective functionalization of hydrocarbons with isolated oxygenases and mediator based regeneration” (priority 2002, published 2004).

In assay [1] the target is T1, Cytochrome C (cytC) (Equus caballus, UniProt P00004).
T1 construct: cytC- (from horse heart, Fluka, Buchs Switzerland); purchased Fluka, Buchs Switzerland; host or cells: horse heart
Put plainly: [Cp*Rh(bpy)H]+ catalyzed, formate driven reduction of Cytochrome C (absorption at 550 nm). Type of assay: biochemical, horse. The settings on record: for TF ([Cp*Rh(bpy)(H2O)]2+) / dc(CytC)red/dt: c(CytC) 31.2 μM, c(NaHCO2) 150 mM. The method, then:
In a typical experiment potassium phosphate buffer (50 mM, pH 7.0, c(NaHCO2)=150 mM) is supplemented with cytC- (from horse heart, Fluka, Buchs Switzerland) and [Cp*Rh(bpy)(H2O)]^2+-stocksolutions to 1 ml final volume in a quartz kuvette and placed into a thermostatted (T=30° C.) UV-spectrophotometer (UNICAM). After addition of the components, the absorption at λ=550 nm is followed. Concentrations of reduced CytC were determined after background correction according to the law of Lamber-Beer utilizing a molar extinction coefficient for reduced CytC of […].
In another typical experiment, the reaction temperature was varied between 20 and 35° C.
To exclude stoichiometric interaction of [Cp*Rh(bpy)(H2O)]^2+ with cytC, in another experiment low c([Cp*Rh(bpy)(H2O)]^2+) were applied. In 50 ml degassed potassium phosphate buffer (50 mM, pH 7.0, c(NaHCO2)=150 mM) 10 μM ([Cp*Rh(bpy)(H2O)]^2+) were incubated with 80 μM cytC (FIG. 9).

Assay [2] deals with several dehydrogenases (HLADH, TBADH, etc.). Particulars: previously reported [13]; cited from earlier work.
Setting [3] is: T 20 °C, c([Cp*Rh(bpy)(H2O)]2+) 100 μM.
Where [4] appears, read: T 30 °C, c([Cp*Rh(bpy)(H2O)]2+) 100 μM.
The mark [5] stands for this setting: T 35 °C, c([Cp*Rh(bpy)(H2O)]2+) 50 μM.

T1 sequence (P00004 whole entry): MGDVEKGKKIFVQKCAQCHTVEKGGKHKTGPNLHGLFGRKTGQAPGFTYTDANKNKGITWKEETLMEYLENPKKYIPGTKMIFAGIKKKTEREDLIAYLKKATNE

On to `Cc1c(C)c(C)[c-](C)c1C.O.[Rh+3].c1ccc(-c2ccccn2)nc1` [[Cp*Rh(bpy)(H2O)]^2+], for which the total turnover number in assay [1] (FIG. 9: 10 μM [Cp*Rh(bpy)(H2O)]2+, 80 μM cytC, 150 mM NaHCO2, 30 °C, degassed buffer, not optimized) was found to be 6. For the same molecule, the “TF ([Cp*Rh(bpy)(H2O)]2+)” value was determined as 4 h⁻¹ in assay [1] (setting [3]), 21 h⁻¹ in assay [1] (setting [4]) and 32 h⁻¹ in assay [1] (setting [5]). For the same molecule, the “dc(CytC)red/dt” value in assay [1] (setting [3]) came to 0.4 mM * h^−; in assay [1] (setting [4]), 2.1 mM * h^−; in assay [1] (setting [5]), 1.6 mM * h^−. The “Turnover frequencies as CytC reduction catalyst” value in assay [1] (depend on the reaction temperature (20-35 °C)) is recorded as 4-32 turnovers per hour. In assay [2], the “influence on the activity of several dehydrogenases” value was “no influence on the activity”.
